Source: PubChem BioAssay (NCI)
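Each compound was tested at five concentrations against cells in 96-well plates for 48 hours. GI50 = concentration required for 50% inhibition of growth. TGI is the concentration that stops growth completely.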

What was measured:
Assay in all cases: NCI anticancer screen, dose series, 48 h
UO-31 renal = tested on: UO-31 renal
M14 melanoma = tested on: M14 melanoma
HCC-2998 colon = tested on: HCC-2998 colon
TK-10 renal = tested on: TK-10 renal
OVCAR-4 ovarian = tested on: OVCAR-4 ovarian
NCI-H460 lung = tested on: NCI-H460 lung
OVCAR-5 ovarian = tested on: OVCAR-5 ovarian
SW-620 colon = tested on: SW-620 colon
HS 578T breast = tested on: HS 578T breast
SK-MEL-5 melanoma = tested on: SK-MEL-5 melanoma

SMILES	TGI (UO-31 renal)	TGI (M14 melanoma)	TGI (HCC-2998 colon)	TGI (TK-10 renal)	TGI (OVCAR-4 ovarian)	TGI (NCI-H460 lung)	TGI (OVCAR-5 ovarian)	TGI (SW-620 colon)	TGI (HS 578T breast)	TGI (SK-MEL-5 melanoma)	GI50 (UO-31 renal)	GI50 (M14 melanoma)	GI50 (SW-620 colon)	GI50 (HCC-2998 colon)	GI50 (TK-10 renal)	GI50 (OVCAR-4 ovarian)	GI50 (NCI-H460 lung)	GI50 (OVCAR-5 ovarian)	GI50 (SK-MEL-5 melanoma)
Cc1ccc(SSCCCCCS(=O)O)cc1	67.2 µM	> 100 µM	> 100 µM	75.4 µM	> 100 µM	> 100 µM	> 100 µM												
CNC(=O)Nc1ccccc1	> 100 µM	> 100 µM	> 100 µM	> 100 µM	> 100 µM	> 100 µM	> 100 µM	> 100 µM	> 100 µM	> 100 µM									
O=C(COc1ccc(Cl)cc1Cl)N/N=C/C=C/c1ccc([N+](=O)[O-])o1	> 100 µM	> 100 µM		91.5 µM	61.8 µM	> 100 µM	> 100 µM	> 100 µM	7.4 µM	5.26 µM									
C[N+](C)(CCO)CCN1c2ccccc2Sc2ccccc21	> 10 µM	> 10 µM	> 10 µM	> 10 µM	> 10 µM	> 10 µM	> 10 µM	> 10 µM	> 10 µM	> 10 µM									
COc1ccc2c(c1)CC[C@@H]1[C@@H]2CC[C@]2(C)C(=O)/C(=C/c3ccc(O)c(OC)c3)C[C@@H]12	> 100 µM	> 100 µM	75.5 µM	> 100 µM	> 100 µM	> 100 µM	> 100 µM	> 100 µM		> 100 µM									
C[C@]12CCC(=O)C=C1CC[C@@H]1[C@@H]2[C@@H](O)C[C@@]2(C)[C@H]1CC[C@]2(O)C(=O)COC(=O)C1CCCC1	> 100 µM	> 100 µM	> 100 µM	> 100 µM	> 100 µM	> 100 µM	> 100 µM	> 100 µM	> 100 µM	> 100 µM									
O=S(O)c1cc(Cl)cc(Cl)c1OCc1ccccc1	> 100 µM	> 100 µM	> 100 µM	> 100 µM	> 100 µM	> 100 µM	> 100 µM												
COc1cc2c(cc1OC)-c1cc3ccc(OC)c(OC)c3c[n+]1CC2	> 100 µM	> 100 µM	> 100 µM	> 100 µM	> 100 µM	> 100 µM	> 100 µM	> 100 µM	> 100 µM	> 100 µM									
O=C(NNC(=O)c1nsc2ccccc12)c1ccc(Cl)cc1	55.4 µM	36.9 µM	31 µM	48.9 µM		> 100 µM	46.4 µM	> 100 µM		59.2 µM									
Nc1nc(=O)n(CC(O)CO)s1 (centres undefined)	> 100 µM	> 100 µM	> 100 µM	> 100 µM	> 100 µM	> 100 µM	> 100 µM	> 100 µM		> 100 µM									
Clc1ccc(-c2nnc(-c3c(Cl)c(Cl)c(Cl)c(Cl)c3-c3nc4ccccc4[nH]3)o2)cc1	> 100 µM	> 100 µM	> 100 µM		> 100 µM	> 100 µM	> 100 µM	> 100 µM	> 100 µM	> 100 µM									
O=C1C[C@H](CCC(=O)OCc2ccccc2)NC(=O)C[C@H](CCC(=O)OCc2ccccc2)NC(=O)C[C@H](CCC(=O)OCc2ccccc2)N1	> 100 µM	> 100 µM	> 100 µM	25.4 µM	> 100 µM	> 100 µM	> 100 µM	> 100 µM	> 100 µM	> 100 µM									
CCOC(=O)c1c(CN2CCCC2)n(-c2ccccc2)c2cc(Br)c(OC)cc12	29.8 µM	36.6 µM		32.5 µM	> 100 µM	35.3 µM	45.7 µM	73.9 µM	> 100 µM	25.3 µM									
COc1ccc(C2C(C=O)C(N3CCN(C)CC3)=Nc3nc4ccccc4n32)cc1 (centres undefined)	32.4 µM	41.5 µM	33.9 µM	40 µM	48.2 µM	91.1 µM	59.7 µM	65.9 µM	> 100 µM	31.5 µM									
Cn1c(=O)c2c(nc(NCCNc3nc4c(c(=O)n(C)c(=O)n4C)n3C)n2C)n(C)c1=O	> 100 µM	> 100 µM	> 100 µM	> 100 µM	> 100 µM	> 100 µM	> 100 µM	> 100 µM	> 100 µM	> 100 µM									
COc1ccc2nc3ccccc3c(NCc3ccc(C)cc3)c2c1	2.65 µM	3.61 µM	3.26 µM	4.15 µM	6.51 µM	4.15 µM	6.02 µM	4.24 µM		3.19 µM	1.28 µM	1.69 µM	1.57 µM	1.73 µM	1.97 µM	2.25 µM	1.97 µM	2.1 µM	1.77 µM
NC(CC(=O)O)(Cc1ccccc1)C(=O)O (centres undefined)	> 100 µM	> 100 µM		> 100 µM	> 100 µM	> 100 µM	> 100 µM	> 100 µM	> 100 µM	> 100 µM									
CC(=O)C1=C(O)CCC1=O	> 100 µM	> 100 µM	> 100 µM	> 100 µM	> 100 µM	> 100 µM	> 100 µM	> 100 µM	> 100 µM	> 100 µM									
